According to US9029135B2 (priority 2009, dated 2015):
Values joined by “and” are separate entries in the source; they are usually repeats but may differ in a detail not shown here. Equal entries are not always repeated.

Tests used:
MDS mouse model = assay: MDS mouse model, combination of KanAS, ATRA and 5-azacytidine, survival; assay type: in vivo; details: MDS mice, individual mouse; alive = still alive on 24 Mar. 2010
Protocol: The MDS mouse model described in Omidvar et al. (2007, Cancer Res. 67:11657-67) was used to study the effect of the combination of KanAS, ATRA and 5-azacytidine on MDS.
100 microliters of 1 mg/ml solution of 5-Azacytidine was injected IP to the mice on the day of diagnosis and then on Mondays, Wednesdays and Fridays until death of the mice.
ATRA was administered through a 10 mg 21 day release pellet
The vaccination protocol was as follows: 100 micrograms of DNA (VVACS02 or pVax14 or pVaxKanAS) were administered […] diagnosis (day 0), which corresponded to the day on which the peripheral blood platelet count fell below normal (<10^5/microliter). On day 20 and on day 40, 2×50 micrograms of DNA were injected again.
The mice were randomly divided into four groups after twelve 5-azacytidine injections: • 5-Azacytidine (n=5) • 5-azacytidine+ATRA (n=4) • 5-azacytidine+VVACS02 DNA (n=4) • 5-azacytidine+ATRA+VVACS02 DNA (n=4)

APL cells = assay: APL mouse model survival, Kaplan-Meier, mice followed for two years; assay type: in vivo, FVB/N mice; details: Kaplan-Meier survival curves
Protocol: The effect of different DNA constructs on an APL mouse model was studied using the protocol disclosed in Padua et al. (2003, Nature Medicine 9:1413-1417). Briefly, 10^4 APL cells were injected to FVB/N mice. Then an ATRA pellet, which releases 5 mg/day of ATRA for 21 days, was introduced behind the neck of the mice with a trochar. DNA (2×50 micrograms of plasmid) was injected the day after introducing the ATRA pellet, and every 20 days for a total of three injections. The following DNA constructs were injected to the mice: • the pVaxKanAS construct, also referred to as pVax14; • the pCDNA3PML-RARαFrC construct (VVACS01); • the pVaxPML-RARαFrC construct; and • the pCDNA3PML-RARαASFrC construct (VVACS04).
A pellet purchased from the manufacturer of the ATRA pellet (Innovative Research, Sarasota, USA) was used as a placebo.
The mice were followed for two years and Kaplan-Meier curves were constructed.
The results are shown on FIG. 2 and in Table 1 herebelow. The log-rank (Mantel-Cox) and general Wilcoxon tests were applied to the Kaplan-Meier curves. Both statistical tests led to identical conclusions in terms of significance.

Nc1ncn([C@@H]2O[C@H](CO)[C@@H](O)[C@H]2O)c(=O)n1 [5-azacytidine]
Days alive from treatment (MDS mouse model): 33 days and Alive on 24 Mar. 2010 (112 days) and 72 days and Alive on 24 Mar. 2010 (75 days) and 37 days

CC1=C(/C=C/C(C)=C/C=C/C(C)=C/C(=O)O)C(C)(C)CCC1 [ATRA, all-trans retinoic acid]
general Wilcoxon Chi-2 value (APL cells; V.S. placebo): 5.1827E+01
general Wilcoxon significance (p bound) (APL cells; V.S. placebo): p < 0.0001
log-rank (Mantel-Cox) Chi-2 value (APL cells; V.S. placebo): 6.0018E+01
log-rank (Mantel-Cox) significance (p bound) (APL cells; V.S. placebo): p < 0.0001
general Wilcoxon Chi-2 value (APL cells; V.S. placebo + DNA): 1.6318E+01
general Wilcoxon significance (p bound) (APL cells; V.S. placebo + DNA): p < 0.0001
log-rank (Mantel-Cox) Chi-2 value (APL cells; V.S. placebo + DNA): 8.7059E+00
log-rank (Mantel-Cox) significance (p bound) (APL cells; V.S. placebo + DNA): p < 0.005
